Like-named read-outs stand apart in the source and are kept apart here.
Test system: TNFα secretion in RAW 264.7 macrophages
Test: TNFα release assay in RAW 264.7 macrophages stimulated with LPS
Assay type: cell-based, mouse
From the text: The purpose of this assay is to measure the ability of small molecules to inhibit the secretion of TNFα in cultured macrophages stimulated with lipopolysaccharide (LPS). Treatment of macrophages with LPS activates inflammatory cytokine pathways primarily through the TLR4-NFκB signaling axis. […] Dexamethasone, a potent agonist of the glucocorticoid receptor is used a positive control for inhibition of TNFα release. Day 1: Seed RAW 264.7 macrophages into 96 well culture plates. Remove culture media from RAW 264.7 cell growing in a […] tissue culture flask (cells should be at […] confluence) and add 10 ml of warmed complete growth media (DMEM+10% FBS+1× pen/step). The cells are scraped into suspension using a sterile plate scraper and homogenized by pipetting up and down with a 10 ml serological pipette. The cell concentration is determined using a clinical hematoctyometer. Cells are then diluted to 150,000 cells per ml into growth media. The diluted cells are then transferred to a sterile reagent reservoir and 100 μl of cell suspension is pipetted into each well of a 96 well culture plate using a multichannel pipette (15,000 cells/well). Plates are then incubated at 37° C. under normal tissue culture growth conditions (37° C., humidified CO2 chamber). Day 2: The test compound sample plate is prepared. Test compounds are prepared in growth media. Compounds are delivered to media from 1000× stocks in 100% DMSO (e.g. for a 10 μM final concentration of test compound, deliver 2 μl of 10 mM test compound to 2 ml of media). At least 150 μl of 1× compound in media is added to 96 well sample plate. Note: the perimeter wells of the 96 well plate are not used to avoid edge effects. Twelve sample wells are prepared with media plus 0.1% DMSO (these samples will serve as the vehicle controls; LPS-stimulated and non-stimulated. 10 μM dexamethasone is used as a positive control). Culture plates are then returned to the growth incubator for 2 hours. Cells are stimulated afterwards by adding 25 μl of 50 ng/ml LPS is added to every well (except the 6 unstimulated vehicle control wells: final concentration of 10 ng/ml LPS. Plates are returned to growth incubator for 3 hours. Afterwards, 100 μl of media supernatant is removed and transferred to a 96 well v-bottom sample plate. The media supernatant plate is centrifuged for 5 minutes at 1000 rpm in a swing-bucket centrifuge, pelleting any cellular debris that may remain in supernatant. 80 μl of supernatant is removed from sample plate and transferred to a fresh v-bottom 96 well plate. Cell viability is measured using Celltiter-glo kit. By measuring cell viability, a given compound's effects on TNFα secretion can determine whether effects are due to cytotoxicity or to true inhibition of inflammatory signaling. Add 100 μl of Celltiter-glo reagent to each well of the cell culture plate and afterwards measure the luminescence signal (CPS) of the plate using the Victor 5 plate reader (0.3 second read; 60 second plate shaking prior to read). Cell viability of a given compound at a given concentration is computed as follows: Cell viability=CPS Sample/(Average CPS unstimulated controls)*100 […] Follow Invitrogen/Biosource manufacture's protocol for the mouse TNFα ELISA. Chromogen development is typically conducted for 20-30 minutes as described in the manufacturer's protocol. After addition of stop solution, measure OD 450 nm using the Victor 5 plate reader (0.1 second/well scan). Determine the TNFα secretion percent of control. The following formula is used to determine the TNFα secretion percent of control: [formula] For each test compound, TNFα secretion percent of control can be plotted as a function of compound concentration using a four parameter dose-response curve fit equation (XLFIT Model #205): fit=([…]=([…]=(y-fit) […] A sample graph showing the data obtained by using one of the Compounds of the Invention in the procedure described above in Example 6 is shown in FIG. 2.

[1] = RAW264.7, RAW 264.7 macrophages, 10 ng/ml LPS, mouse TNFα ELISA, read-out: TNFα Secretion, IC50 μM

Compound: CC/C=C\C/C=C\C/C=C\C/C=C\C/C=C\C/C=C\CCC(=O)NCCNC(=O)c1ccccc1O [Compound 31, N-(2-(4Z,7Z,10Z,13Z,16Z,19Z)-docosa-4,7,10,13,16,19-hexaenamidoethyl)-2-hydroxybenzamide]
- IC50 [1]: 15 µM

Compound: CC/C=C\C/C=C\C/C=C\C/C=C\C/C=C\C/C=C\CCC(=O)O [DHA, all-cis-4,7,10,13,16,19-docosahexaenoic acid, reference compound]
- IC50 [1]: > 100 µM

Compound: CC/C=C\C/C=C\C/C=C\C/C=C\C/C=C\C/C=C\CCC(=O)Nc1ccc(O)c(C(=O)O)c1 [III-1, 5-(4Z,7Z,10Z,13Z,16Z,19Z)-docosa-4,7,10,13,16,19-hexaenamido-2-hydroxybenzoic acid]
- IC50 (Mus musculus, RAW264.7, read-out: TNFα Secretion, IC50 μM): 146 µM

Compound: CC/C=C\C/C=C\C/C=C\C/C=C\C/C=C\C/C=C\CCC(=O)NC(CC(C)C)C(=O)Oc1ccccc1C(=O)OCC (stereo not shown) [Compound I-1, ethyl 2-(2-(4Z,7Z,10Z,13Z,16Z,19Z)-docosa-4,7,10,13,16,19-hexaenamido-4-methylpentanoyloxy)benzoate]
- inhibition at 6.2 µM (Mus musculus, RAW264.7, read-out: TNFα Secretion, % Inhibition): 24.4%

Compound: CC/C=C\C/C=C\C/C=C\C/C=C\C/C=C\C/C=C\CCC(=O)NC(CC(C)C)C(=O)Nc1ccc(O)c(C(=O)O)c1 (stereo not shown) [III-6, 5-(2-(4Z,7Z,10Z,13Z,16Z,19Z)-docosa-4,7,10,13,16,19-hexaenamido-4-methylpentanamido)-2-hydroxybenzoic acid]
- IC50 [1]: 65.3 µM

Compound: CC/C=C\C/C=C\C/C=C\C/C=C\C/C=C\C/C=C\CCC(=O)Oc1ccccc1C(=O)O [Ia-1, 2-((4Z,7Z,10Z,13Z,16Z,19Z)-docosa-4,7,10,13,16,19-hexaenoyloxy)benzoic acid]
- IC50 [1]: 69.2 µM

Compound: Nc1ccc(O)c(C(=O)O)c1 [Compound 5-ASA, 5-aminosalicylic acid, reference compound]
- IC50 [1]: > 100 µM

From patent publication US20180325923A1, “FATTY ACID ACETYLATED SALICYLATES AND THEIR USES” (Catabasis Pharmaceuticals, Inc., priority 2008, published 2018)
